Values joined by “and” are separate entries in the source; they are usually repeats but may differ in a detail not shown here. Equal values may be shown once. Read-outs that look alike come from different tables or passages of the source.
What was measured:
[1] = tested on: DH10B-pVSF2-tet^r/pCom10-XylC (benzaldehyde dehydrogenase XylC from Pseudomonas putida); test: Plate-based assay for tetracycline resistance, biocat-selector strain with XylC substrates; type: cell-based, Escherichia coli; conditions: for EC50: Escherichia coli, read-out: substrate concentration required for half-maximal colony diameter, cells containing XylC, selective plates, estimated from inverse plots of FIG. 4
Description: Plasmid pCom10-XylC was re-introduced into DH10B-pVSF2-tet^r to produce the desired biocat-selector strain DH10B-pVSF2-tet^r/pCom10-XylC. This strain grew on tetracycline containing selective plates only after addition of benzaldehyde or 2-hydroxybenzaldehyde.

[2] = tested on: DH10B-pVSF2-lacZ/pCom10-XylC (benzaldehyde dehydrogenase XylC from Pseudomonas putida); test: Plate-based assay for β-galactosidase activity, biocat-reporter strain with XylC substrates; conditions: plates with chloramphenicol, kanamycin, X-Gal; decane vapor to induce XylC
Description: Cells were plated and grown as above, under decane vapor, followed by incubation at 4° C. and testing for blue colony color as above.
Strain DH10B-pVSF2-lacZ was transformed with pCom10-XylC, streaked on plates containing chloramphenicol, kanamycin, X-Gal and varying concentrations of benzaldehyde or 2-hydroxybenzaldehyde, and grown exposed to decane vapor to induce XylC. Strain DH10B-pVSF2-lacZ, carrying an empty pCom10 vector served as control.

[3] = tested on: DH10B-pVSF2-lacZ (NahR mutant, salicylate promoter Psal fused to lacZa); conditions: plates with chloramphenicol and X-Gal, 36 h at 30° C.
Description: E. coli DH10B cells harbouring reporter plasmid pVSF2-lacZ were streaked on the plates from a liquid culture that had been grown at 30° C. to an OD600 of 0.1. Cells were grown for 36 h at 30° C. followed by incubation at 4° C. for 24 h after which blue colony color formation was evaluated visually.

[4] = tested on: DH10B-pVSF2-tet^r (NahR mutant, Psal fused to tetA)
Description: (§1) Each plate assay was conducted in triplicate and growth was determined by measuring the colony diameter of 10 solitary colonies for each plate.
(§2) We compared the sensitivity of the selector host for substrates and products by plotting the data of FIGS. 3 and 4 as inverse plots of 1/[colony diameter] vs 1/[compound] and estimating the concentration required for half maximal colony size.

NahR variant = NahR variant (Pseudomonas putida, UniProt P10183, N169D); conditions: reported by de Lorenzo and coworkers (Cebolla et al., 1997); cited from earlier work
Chain of NahR variant (P10183 whole entry N169D, the tested form may be a part): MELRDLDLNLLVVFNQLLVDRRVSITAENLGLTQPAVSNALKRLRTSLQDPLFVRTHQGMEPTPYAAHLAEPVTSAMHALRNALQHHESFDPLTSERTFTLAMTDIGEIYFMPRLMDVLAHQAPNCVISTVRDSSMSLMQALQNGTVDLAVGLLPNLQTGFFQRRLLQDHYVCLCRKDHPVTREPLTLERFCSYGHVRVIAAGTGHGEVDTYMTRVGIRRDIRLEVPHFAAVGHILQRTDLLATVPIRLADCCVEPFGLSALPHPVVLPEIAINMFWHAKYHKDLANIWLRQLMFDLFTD

E. coli cell membranes = test: Passive diffusion across the cell envelope; type: in vitro ADME; conditions: for diffusion rate across E. coli cell membranes: estimated from studies of toluene oxidation by E. coli hosts containing xylMA
Description: This can be considered to be due to differences in the transport of benzaldehyde and benzoate through the E. coli cell envelope. Such transport is believed to involve only passive diffusion^21,22. […].
Thus, substrate influx and product efflux, though different, are quite rapid. […]

[5] = tested on: DH10B-pVSF2-tet^r (NahR mutant, Psal fused to tetA); test: microbe, parasite or virus in culture; conditions: Escherichia coli, read-out: concentration required for half maximal colony size (colony diameter 50% of maximum), product added extracellularly, selective plates; estimated from inverse plots of FIG. 3
Description: as §1, §2

Compound: O=Cc1ccccc1O [2-hydroxybenzaldehyde]
- EC50 [1]: ~0.3 µM
- substrate concentration above which blue colonies were formed [2]: above 25 μM

Compound: O=C(O)c1ccccc1O [2-hydroxybenzoate]
- concentration above which blue colonies were detected [3]: higher than 10 μM
- saturating concentration for blue colony formation [3]: ~100 µM
- fold more effective than the parent compound in triggering tetracycline resistance ([4]; 2-hydroxy substituted vs unsubstituted compound): 15-20
- EC50 ([4]; read-out: concentration required for half maximal colony size (colony diameter 50% of maximum), product added extracellularly, selective plates, estimated from inverse plots of FIG. 3): ~20 µM and 20 µM
- minimum concentration at which colonies were formed ([4]; selective media with tetracycline): 10 µM
- concentration at which smaller and also fewer colonies were observed ([4]; selective plates with tetracycline): 10 µM
- affinity of the NahR chemosensor, times greater than for benzoate (NahR variant): 10

Compound: O=Cc1ccccc1 [benzaldehyde]
- EC50 [1]: ~6 µM
- concentration giving homogeneous growth ([1]; host with higher tetracycline tolerance, selective conditions): ~100 µM
- time for intracellular and extracellular concentrations to equilibrate (E. coli cell membranes): a few seconds
- diffusion rate across E. coli cell membranes (E. coli cell membranes): exceed 180 μmol/min/g cell dry mass
- substrate concentration above which blue colonies were formed [2]: above 50 μM

Compound: O=C(O)c1ccccc1 [benzoate]
- time for intracellular and extracellular concentrations to equilibrate (E. coli cell membranes): one minute
- diffusion rate across E. coli cell membranes (E. coli cell membranes): > 10 μmol/min/g cell dry mass
- EC50 [5]: ~400 µM

— US20090227470A1, “SELECTION OF BIOCATALYSTS FOR CHEMICAL SYNTHESIS” (priority 2005, published 2009)
